Data: article PMC10415124 (Nucleic Acids Research, 2023)

Experiments:
Assay type in all cases: binding
[1] = target: T1, HsTRPT1 (tRNA 2′-phosphotransferase 1) (Homo sapiens, UniProt Q86TN4); assay: ITC
T1 sequence (Q86TN4 1-253): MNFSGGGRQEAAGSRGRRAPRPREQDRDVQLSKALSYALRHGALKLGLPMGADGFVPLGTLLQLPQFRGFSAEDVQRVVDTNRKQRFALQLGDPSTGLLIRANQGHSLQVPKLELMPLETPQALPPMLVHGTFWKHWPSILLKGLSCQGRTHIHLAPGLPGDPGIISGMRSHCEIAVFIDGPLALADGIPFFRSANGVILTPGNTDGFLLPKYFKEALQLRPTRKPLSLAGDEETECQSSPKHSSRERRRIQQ

[2] = target: T2, ScTRPT1 (TPT1, tRNA 2′-phosphotransferase) (Saccharomyces cerevisiae, UniProt Q12272); assay: ITC and co-crystal structure
T2 sequence (Q12272 1-230): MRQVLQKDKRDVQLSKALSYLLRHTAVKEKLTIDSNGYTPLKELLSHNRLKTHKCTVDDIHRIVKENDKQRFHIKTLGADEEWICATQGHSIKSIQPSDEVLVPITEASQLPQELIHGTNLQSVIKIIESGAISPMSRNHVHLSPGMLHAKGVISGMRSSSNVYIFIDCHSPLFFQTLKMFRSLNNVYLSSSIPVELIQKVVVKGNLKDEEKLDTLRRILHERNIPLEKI

[3] = target: T3, MmTRPT1 (tRNA 2′-phosphotransferase 1) (Mus musculus, UniProt Q8K3A2); assay: ITC
T3 sequence (Q8K3A2 1-249): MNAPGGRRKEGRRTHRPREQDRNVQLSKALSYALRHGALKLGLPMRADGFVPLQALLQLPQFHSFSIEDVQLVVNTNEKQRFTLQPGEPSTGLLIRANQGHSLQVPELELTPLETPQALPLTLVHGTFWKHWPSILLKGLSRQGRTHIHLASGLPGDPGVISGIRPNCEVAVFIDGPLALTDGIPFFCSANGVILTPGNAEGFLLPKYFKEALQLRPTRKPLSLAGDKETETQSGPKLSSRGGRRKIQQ

[4] = target: T1, HsTRPT1 (tRNA 2′-phosphotransferase 1); assay: crystal structure
[5] = target: T3, MmTRPT1 (tRNA 2′-phosphotransferase 1); assay: crystal structure

Kd [1] [µM]	Kd [2] [µM]	Kd [3] [µM]	crystal structure [5]	Compound	crystal structure [4]
11.8 ± 0.32	23.8 ± 1.88	22.3 ± 0.75	–	NC(=O)c1ccc[n+]([C@@H]2O[C@H](COP(=O)([O-])OP(=O)(O)OC[C@H]3O[C@@H](n4cnc5c(N)ncnc54)[C@H](O)[C@@H]3O)[C@@H](O)[C@H]2O)c1 [NAD^+]	–
–	–	–	binds to the HsTRPT1/MmTRPT1 monomer	Nc1ncnc2c1ncn2[C@@H]1O[C@H](COP(=O)(O)OP(=O)(O)OC[C@H]2O[C@H](OP(=O)(O)O)[C@H](O)[C@@H]2O)[C@@H](O)[C@H]1O [ADPRp]	electron density map clearly showed that one ADPRp molecule
